Test results taken from PubChem BioAssay AID1963430 (Molecular Pharmacology Branch, DTP, NCI, 2024).
Values joined by “and” are separate entries in the source; they are usually repeats but may differ in a detail not shown here. Equal values may be shown once.

Tested on: 521955-158-R2-J5-PDC complex spheroid growth, % test/control
Experiment: Anticancer human tumor 521955-158-R2-J5-PDC patient-derived pancreatic carcinoma cell line growth inhibition [Asc]
Details: for viability, T/C: stronger effect = lower value; active = viability on the fitted dose curve at most 10% of control; inactive = the rest
Procedure, shortened: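 Concentration series start at each agent's clinical Cmax, or at 10 microM when none is established, and drop in half-log steps; agents are applied alone or together to complex spheroids built with HUVEC and hMSC.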
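Note: spheroids exposed to agents for 7 days before readout.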
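Throughout, for viability, T/C: 100% = DMSO vehicle control viability.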

O=C(c1cc(Cc2n[nH]c(=O)c3ccccc23)ccc1F)N1CCN(C(=O)C2CC2)CC1 + Cc1c(S(C)(=O)=O)c(-c2cc(F)cc(N3CCN(c4ccc(NS(=O)(=O)c5ccc(NC(CCN6CCC(C(=O)OCCCP(=O)(O)O)CC6)CSc6ccccc6)c(S(=O)(=O)C(F)(F)F)c5)cc4)CC3)c2)c(-c2ccc(Cl)cc2)n1C(C)C
> 10000 nM: IC50 (curve of first compound, second compound 0.316 µM) | IC50 (curve of first compound, second compound 3.16 µM) | IC50 (curve of first compound, second compound 10 µM)
835 nM: IC50 (curve of first compound, second compound 1 µM)
inactive: viability, T/C (second compound 0.1 µM, first compound 0.0316 µM) 74.6% | viability, T/C (second compound 0.1 µM, first compound 0.1 µM) 73.8% | viability, T/C (second compound 0.1 µM, first compound 0.316 µM) 66.1% | viability, T/C (second compound 0.1 µM, first compound 1 µM) 68.3% | viability, T/C (second compound 0.1 µM, first compound 3.16 µM) 59% | viability, T/C (second compound 0.1 µM, first compound 10 µM) 41.4% | viability, T/C (second compound 0.316 µM, first compound 0.0316 µM) 51.4% | viability, T/C (second compound 0.316 µM, first compound 0.1 µM) 55.3% | viability, T/C (second compound 0.316 µM, first compound 0.316 µM) 61.4% | viability, T/C (second compound 0.316 µM, first compound 1 µM) 68.4% | viability, T/C (second compound 0.316 µM, first compound 3.16 µM) 70.1% | viability, T/C (second compound 0.316 µM, first compound 10 µM) 63.2% | viability, T/C (second compound 1 µM, first compound 0.0316 µM) 68.5% | viability, T/C (second compound 1 µM, first compound 0.1 µM) 88.3% | viability, T/C (second compound 1 µM, first compound 0.316 µM) 63.4% | viability, T/C (second compound 1 µM, first compound 1 µM) 45.6% | viability, T/C (second compound 1 µM, first compound 3.16 µM) 52.6% | viability, T/C (second compound 1 µM, first compound 10 µM) 44.4% | viability, T/C (second compound 3.16 µM, first compound 0.0316 µM) 71.5% | viability, T/C (second compound 3.16 µM, first compound 0.1 µM) 50.3% | viability, T/C (second compound 3.16 µM, first compound 0.316 µM) 95.8% | viability, T/C (second compound 3.16 µM, first compound 1 µM) 70.2% | viability, T/C (second compound 3.16 µM, first compound 3.16 µM) 72.9% | viability, T/C (second compound 3.16 µM, first compound 10 µM) 49.8% | viability, T/C (second compound 10 µM, first compound 0.0316 µM) 103% | viability, T/C (second compound 10 µM, first compound 0.1 µM) 172% | viability, T/C (second compound 10 µM, first compound 0.316 µM) 117% | viability, T/C (second compound 10 µM, first compound 1 µM) 139% | viability, T/C (second compound 10 µM, first compound 3.16 µM) 102% | viability, T/C (second compound 10 µM, first compound 10 µM) 99.9%
5690 nM: IC50 (curve of first compound, second compound 0.1 µM)

O=C(c1ccc(F)c(F)c1Nc1ccc(I)cc1F)N1CC(O)([C@@H]2CCCCN2)C1
90.2 nM and 184 nM and 30.9 nM: IC50 (curve of compound)
inactive: viability, T/C (compound 0.00316 µM) 73.4% and 81.6% and 64.9% | viability, T/C (compound 0.01 µM) 73.2% and 72.4% and 79.1% | viability, T/C (compound 0.0316 µM) 61.1% and 71.3% and 49.6% | viability, T/C (compound 0.1 µM) 47.8% and 51.4% and 31% | viability, T/C (compound 0.316 µM) 41.1% and 47.1% and 32.3% | viability, T/C (compound 1 µM) 33.1% and 31.4% and 26%
